# Read-outs that look alike come from different tables or passages of the source.
# How the values were obtained:
# Assay type in all cases: cell-based
# [1] = test system: liver cancer cell line T2 HCC; experiment: Minimal effective concentration that elicits polyploidy, T2 HCC; details: Mus musculus, read-out: MECP: Minimal effective concentration that elicits polyploidy
# [2] = test system: colon cancer cell line HCT116; experiment: Minimal effective concentration that elicits polyploidy, HCT116; details: Homo sapiens, HCT-116, read-out: MECP: Minimal effective concentration that elicits polyploidy
# SW480 = experiment: Minimal effective concentration that elicits polyploidy, SW480; details: Homo sapiens, read-out: MECP: Minimal effective concentration that elicits polyploidy
# [3] = test system: breast cancer cell line MDA-MB-231; experiment: MTT assay of cellular proliferation, MDA-MB-231; details: Homo sapiens, read-out: EC50: Concentration that inhibits 50% of proliferation
# Experimental: (§1) Six lung cancer cell lines (NCI-H23, NCI-H460, NCI-H596, NCI-H2170, Calu-6 and A549), two colon cancer cell lines (HCT116 and SW460), one breast cancer cell line MDA-MB-231, one gastric cancer cell line NCI-N87, one prostate cancer cell line DU145, one cervical cancer cell line Hela, and one glioblastoma cell line T98G were obtained from ATCC. The T2 HCC cell line was derived from a mouse liver cancer model initiated by a transgene of MYC (Reference). All cell lines were cultured in DMEM (Gibco, Cleveland, TN, USA) supplemented with 5% fetal bovine serum (Gibco), penicillin (100 U/mL)-streptomycin (100 μg/mL) (Gibco, Cat. No. 15140-122), 2 mM L-glutamine (Gibco, 200 mM solution, Cat. No. 25030081), and 1 mM sodium pyruvate (Gibco, 100 mM solution, Cat. No. 11360070) at 37° C. in a humidified incubator that was maintained at 5% CO2.
# (§2) The MTT assay measures cellular metabolic activity as a proxy for cell viability and involves the conversion of the water-soluble yellow dye MTT [3-(4,5-dimethylthiazol-2-yl)-2,5-diphenyltetrazolium bromide] into an insoluble purple formazan by the action of mitochondrial reductase. Formazan is then solubilized and its concentration is determined by measuring the optical density (OD) value at a wavelength of 570 nm. The value is in proportional to the number of live cells with excellent linearity up to ˜10^6 cells per well. The MTT assay was used to determine the EC50 value, the concentration of a compound that leads to 50% inhibition of cellular proliferation. Briefly, cells were split when growing to the mid-Log phase. Cells in 100 μL of culture medium were seeded into each well of 96-well microplates and cultivated for 15˜24 hours to reach a confluence of 20˜30% and were then exposed to drugs at concentrations ranging from 1 nM to 10 μM. At the endpoint, 20 μL of a MTT stock solution in DMSO (5 mg/mL) was added to each well that contains […] of DMEM. The microplates were left in the cell culture incubator for 3˜4 h before subjected to solubilization and determination of formazan at A570 in a microplate reader (BioTek ELX808iu). […] Therefore, these compounds might hold a broad utility in the treatment of a large variety of human malignancies.
# [4] = test system: colon cancer cell line HCT116; experiment: MTT assay of cellular proliferation, HCT116; details: Homo sapiens, HCT-116, read-out: EC50: Concentration that inhibits 50% of proliferation
# Experimental: as §1, §2
# [5] = test system: lung cancer cell line NCI-H23; experiment: MTT assay of cellular proliferation, NCI-H23; details: Homo sapiens, read-out: EC50: Concentration that inhibits 50% of proliferation
# Experimental: as §1, §2
# [6] = test system: gastric cancer cell line NCI-N87; experiment: MTT assay of cellular proliferation, NCI-N87; details: Homo sapiens, read-out: EC50: Concentration that inhibits 50% of proliferation
# Experimental: as §1, §2
# [7] = test system: colon cancer cell line SW460; experiment: MTT assay of cellular proliferation, SW460; details: Homo sapiens, SW480; read-out: EC50: Concentration that inhibits 50% of proliferation
# Experimental: as §1, §2
# [8] = test system: breast cancer cell line MDA-MB-231; experiment: Minimal effective concentration that elicits polyploidy, MDA-MB-231; details: Homo sapiens, read-out: MECP: Minimal effective concentration that elicits polyploidy
# [9] = test system: lung cancer cell line NCI-H23; experiment: Minimal effective concentration that elicits polyploidy, NCI-H23; details: Homo sapiens, read-out: MECP: Minimal effective concentration that elicits polyploidy
# [10] = test system: cervical cancer cell line Hela; experiment: Minimal effective concentration that elicits polyploidy, Hela; details: Homo sapiens, read-out: MECP: Minimal effective concentration that elicits polyploidy
# RPEMYC^H2B-GFP cells [11] = experiment: Mechanism-informed phenotypic screening assay (mitotic arrest, polyploidy; GE IN-Cell Analyzer 2000); details: 20 nM to 20 μM, 24, 48 or 72 hours, read-out: Mitotic Arrest (≥5%)
# [12] = test system: gastric cancer cell line NCI-N87; experiment: Minimal effective concentration that elicits polyploidy, NCI-N87; details: Homo sapiens, read-out: MECP: Minimal effective concentration that elicits polyploidy
# [13] = test system: lung cancer cell line A549; experiment: Minimal effective concentration that elicits polyploidy, A549; details: Homo sapiens, read-out: MECP: Minimal effective concentration that elicits polyploidy
# [14] = test system: lung cancer cell line A549; experiment: MTT assay of cellular proliferation, A549; details: Homo sapiens, read-out: EC50: Concentration that inhibits 50% of proliferation
# Experimental: as §1, §2
# [15] = test system: cervical cancer cell line Hela; experiment: MTT assay of cellular proliferation, Hela; details: Homo sapiens, read-out: EC50: Concentration that inhibits 50% of proliferation
# Experimental: as §1, §2
# RPEMYC^H2B-GFP cells [16] = experiment: Mechanism-informed phenotypic screening assay (mitotic arrest, polyploidy; GE IN-Cell Analyzer 2000); details: 20 nM to 20 μM, 24, 48 or 72 hours, read-out: Min. Effective conc. for polyploidy (≥5%)
# Summary of the method: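 Cells expressing Histone 2B-EGFP (RPEMYC^H2B-GFP) were plated 18-24 h before exposure to compounds at 20 nM to 20 μM. At 24, 48 or 72 h, imaging scored mitotic arrest or change in DNA content. Value is the lowest concentration giving polyploid accumulation at 48 h.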
# [17] = test system: liver cancer cell line T2 HCC; experiment: MTT assay of cellular proliferation, T2 HCC; details: Mus musculus, read-out: EC50: Concentration that inhibits 50% of proliferation
# Experimental: as §1, §2
EC50 [3] [µM],EC50 [4] [µM],EC50 [5] [µM],EC50 [6] [µM],EC50 [7] [µM],EC50 [14] [µM],EC50 [15] [µM],EC50 [17] [µM],Structure (SMILES),minimal effective concentration [1] [µM],minimal effective concentration [2] [µM],minimal effective concentration (SW480) [µM],minimal effective concentration [8] [µM],minimal effective concentration [9] [µM],minimal effective concentration [10] [µM],minimal effective concentration (RPEMYC^H2B-GFP cells [11]) [µM],minimal effective concentration [12] [µM],minimal effective concentration [13] [µM],minimal effective concentration (RPEMYC^H2B-GFP cells [16]) [µM]
0.001 to 1,0.001 to 1,0.001 to 1,0.001 to 1,0.001 to 1,0.001 to 1,0.001 to 1,0.001 to 1,"CCOc1cc(Oc2ncccc2-c2ccnc(C)c2)cc(C(=O)NC)c1 [Compound 38, 3-ethoxy-N-methyl-5-((2′-methyl-[3,4′-bipyridin]-2-yl)oxy)benzamide]",0.001 to 1,0.001 to 1,0.001 to 1,0.001 to 1,0.001 to 1,0.001 to 1,1,0.001 to 1,0.001 to 1,1
0.001 to 1,0.001 to 1,0.001 to 1,0.001 to 1,0.001 to 1,0.001 to 1,0.001 to 1,0.001 to 1,"CNC(=O)c1cc(Oc2ncccc2-c2ccnc(C)c2)cc(OC(F)(F)F)c1 [Compound 39, N-methyl-3-((2′-methyl-[3,4′-bipyridin]-2-yl)oxy)-5-(trifluoromethoxy)benzamide]",0.001 to 1,0.001 to 1,0.001 to 1,0.001 to 1,0.001 to 1,0.001 to 1,1,0.001 to 1,0.001 to 1,1
0.001 to 1,0.001 to 1,0.001 to 1,0.001 to 1,0.001 to 1,0.001 to 1,0.001 to 1,0.001 to 1,"COc1cc(Oc2ncccc2-c2ccnc(C)c2)cc(C(F)(F)F)c1 [Compound 40, 2-(3-methoxy-5-(trifluoromethyl)phenoxy)-2′-methyl-3,4′-bipyridine]",0.001 to 1,0.001 to 1,0.001 to 1,0.001 to 1,0.001 to 1,0.001 to 1,1,0.001 to 1,0.001 to 1,1
0.001 to 1,0.001 to 1,0.001 to 1,0.001 to 1,0.001 to 1,0.001 to 1,0.001 to 1,0.001 to 1,"COc1cc(Oc2ncccc2-c2ccnc(C)c2)cc(-n2cccn2)c1 [Compound 41, 2-(3-methoxy-5-(1H-pyrazol-1-yl)phenoxy)-2′-methyl-3,4′-bipyridine]",0.001 to 1,0.001 to 1,0.001 to 1,0.001 to 1,0.001 to 1,0.001 to 1,1,0.001 to 1,0.001 to 1,1
0.001 to 1,0.001 to 1,0.001 to 1,0.001 to 1,0.001 to 1,0.001 to 1,0.001 to 1,0.001 to 1,"COc1cc(OC)cc(Oc2ncccc2-c2ccnc(C)c2)c1 [Compound 42, 2-(3,5-dimethoxyphenoxy)-2′-methyl-3,4′-bipyridine]",0.001 to 1,0.001 to 1,0.001 to 1,0.001 to 1,0.001 to 1,0.001 to 1,1,0.001 to 1,0.001 to 1,1
0.001 to 1,0.001 to 1,0.001 to 1,0.001 to 1,0.001 to 1,0.001 to 1,0.001 to 1,0.001 to 1,"COc1cc(NC(C)=O)cc(Oc2ncccc2-c2ccnc(C)c2)c1 [Compound 43, N-(3-methoxy-5-((2′-methyl-[3,4′-bipyridin]-2-yl)oxy)phenyl)acetamide]",0.001 to 1,0.001 to 1,0.001 to 1,0.001 to 1,0.001 to 1,0.001 to 1,1,0.001 to 1,0.001 to 1,1
0.001 to 1,0.001 to 1,0.001 to 1,0.001 to 1,0.001 to 1,0.001 to 1,0.001 to 1,0.001 to 1,"CNC(=O)c1cc(OC)cc(Oc2ncccc2-c2ccnc(Cl)c2)c1 [Compound 45, 3-((2′-chloro-[3,4′-bipyridin]-2-yl)oxy)-5-methoxy-N-methylbenzamide]",0.001 to 1,0.001 to 1,0.001 to 1,0.001 to 1,0.001 to 1,0.001 to 1,1,0.001 to 1,0.001 to 1,1
0.001 to 1,0.001 to 1,0.001 to 1,0.001 to 1,0.001 to 1,0.001 to 1,0.001 to 1,0.001 to 1,"COc1cc(NC(C)=O)cc(Oc2ncccc2-c2ccnc(Cl)c2)c1 [Compound 46, N-(3-((2′-chloro-[3,4′-bipyridin]-2-yl)oxy)-5-methoxyphenyl)acetamide]",0.001 to 1,0.001 to 1,0.001 to 1,0.001 to 1,0.001 to 1,0.001 to 1,1,0.001 to 1,0.001 to 1,1
0.001 to 1,0.001 to 1,0.001 to 1,0.001 to 1,0.001 to 1,1 to 10,0.001 to 1,0.001 to 1,"COC(=O)c1cc(OC)cc(Oc2nccnc2-c2cccnc2)c1 [Compound 52, methyl 3-methoxy-5-((3-(pyridin-3-yl)pyrazin-2-yl)oxy)benzoate]",0.001 to 1,0.001 to 1,0.001 to 1,0.001 to 1,0.001 to 1,0.001 to 1,1,0.001 to 1,0.001 to 1,1
